This note sets out measurements from patent US12415789B2, “Macrocycles comprising a 4-amido-2,4-pentadienoate moiety for the treatment of hypoxic cancers” (Aarhus Universitet, priority 2019, dated 2025).

Structures are written as SMILES. Read-outs that look alike come from different tables or passages of the source.

A short description of series [1]: Chemical stability measurements (UPLC-UV). The settings on record: 20 μM in sodium tetraborate buffer (pH 10) with 30% MeOH, 23° C., up to 9 hours.
Method: The stability of compounds under neutral or basic conditions were tested by dissolving compounds to 20 μM in PBS (pH 7.4) or sodium tetraborate buffer (pH 10) both mixed with 30% MeOH. The mixtures were shaken vigorously and injected immediately in the HPLC. The reactions were allowed to run at 23° C. for 9 hours and injections were performed once per hour. The concentrations of unreacted compounds were determined by UPLC-UV (Agilent 1260 infinity II) at 262 nm by injecting 5 μL on a PFP column (Poroshell 120 PFP, 3.0×100 mm, 2.7 micron). The compounds were eluted by a 1 mL/minute-gradient of acetonitrile in H2O from 5% to 95% over 8 minutes, then 95% for 1 minute and then 5% acetonitrile in H2O in 30 seconds.
Another series has as its system U2OS cells. The series is described as follows: Viability assay (CellTiter Blue), U2OS cells, hypoxia vs normoxia. The format is cell-based, human. The conditions noted are these: for Index [3] Selectivity index (IC50 [2]/IC50 [1]): normoxic IC50 / hypoxic IC50.
For the next series, the system named is HaCat cells. The series is described as follows: Viability assay (CellTiter Blue), HaCat cells, hypoxia vs normoxia. The class given is cell-based, human. The conditions noted are these: for Index [3] Selectivity index (IC50 [2]/IC50 [1]): normoxic IC50 / hypoxic IC50.
The subject of the next series is HCT116 cells. The series is described as follows: Viability assay (CellTiter Blue), HCT116 cells, hypoxia vs normoxia. The format is cell-based, human. The conditions noted are these: for Index [3] Selectivity index (IC50 [2]/IC50 [1]): HCT116, normoxic IC50 / hypoxic IC50. Here is the method:
(§1) PANC-1 and HaCat cells (PANC-1: RRID:CVCL 0480, taken from a person, HaCat: RRID:CVCL 0038) were cultured in DMEM (Gibco, Cat #: 21969-035) supplemented with FBS (10%, Gibco, Cat #: A31698-02), Penicillin/Streptomycin (1%, Sigma-Aldrich, Cat #: P0781), and Ala-Gln (200 μM, Sigma-Aldrich, Cat #: G8541). BxPC3 cells (RRID:CVCL 0186, taken from a person) were cultured in RPMI 1640 (Gibco, Cat #: 61870-010) supplemented with FBS (10%) and Penicillin/Streptomycin (1%). U2OS (RRID:CVCL 0042) and HCT116 cells (RRID:CVCL 0291, ATCC CCL-247) were cultured in McCoy's 5A (Sigma cat. no. M9309) supplemented with FBS (10%) and Penicillin/Streptomycin (1%). Cells were grown under normoxic conditions in T75 flasks (Biolite, Thermo Scientific, Cat #: 130190) in a humidified atmosphere with 5% CO2 at 37° C. For hypoxic conditions cells were placed in a modular incubator chamber (MIC-101, Billups-Rothenberg) equipped with a 10-cm dish with milliQ water and flushed with CO2/N2 (5%/95%, BioNERT, AGA Cat #: 100466065) for 8 minutes at 20-25 L/minute. Cells were passaged approximately every third day by trypsination (Sigma-Aldrich, Cat #: T4049) followed by transfer of ⅕^th of the cells to a new flask. All cell cultures were handled aseptically in a laminar air flow bench and grown in sterile-filtered (Jetbiofil, Cat #: FPE204500) medium according to ATCC's recommendations. All human cell lines were correctly identified by short tandem repeat analysis and tested free of mycoplasma contamination by MycoAlert (Lonza, Cat #: LT07-218).
(§2) Cells were seeded in black 96-well plates (2000 cells/well, 75 μL/well, ThermoFisher Scientific, Cat #: 137103) in complete medium. Subsequently, the cells were allowed to adhere to the substratum overnight. The next day, compounds were serially diluted in DMSO as 200× solutions. The 200× solutions of compounds were initially diluted in complete medium to 4× solutions containing 2% DMSO. Finally, the compounds were given to cells by the addition of 25 μL/well in triplicates resulting in 1× solutions of compounds in 100 μL/well. The cells were then incubated under either normoxia or hypoxia. 90 minutes before the end of the experiment, all cells were given CellTiter Blue (20 μL/well, Promega, Cat #: G8080) and reincubated under normoxia for the remaining time of the experiment. The viability of the cells was assessed by measuring fluorescence in a plate reader (ex/em: 552±10/598±10, Tecan Spark 10M). Data were normalized to the two lowest concentrations of compound and fitted to a 4-parameter nonlinear regression in Prism 7.04 for Windows, GraphPad Software, La Jolla Calif. USA. IC50 values were extrapolated as the X value at Y=50%. Results can be found in Table 1 and the corresponding dose-response curves seen in FIGS. 12 to 17 and in FIGS. 9 to 10.

The next series has as its system PANC-1 cells. The series is described as follows: Viability assay (CellTiter Blue), PANC-1 cells, hypoxia vs normoxia. The format is cell-based, human. The conditions noted are these: for Index [3] Selectivity index (IC50 [2]/IC50 [1]): PANC1, normoxic IC50 / hypoxic IC50. Here is the method: as §1, §2
Another series has as its system BxPC3 cells. The series is described as follows: Viability assay (CellTiter Blue), BxPC3 cells, hypoxia vs normoxia. The format is cell-based, human. The settings on record: for Index [3] Selectivity index (IC50 [2]/IC50 [1]): BxPC3, normoxic IC50 / hypoxic IC50. Here is the method: as §1, §2
In the next series the test system is tested cell lines. The series is described as follows: Viability assays, summary statements across the tested cell lines. The class given is cell-based, human. The method, then:
as §1, with “Cells were passaged approximately every third day by trypsination (Sigma-Aldrich, Cat #: T4049) followed by transfer of ⅕^th of the cells to a new flask. All cell cultures were handled aseptically in a laminar air flow bench and grown in sterile-filtered (Jetbiofil, Cat #: FPE204500) medium according to ATCC's recommendations. All human cell lines were correctly identified by short tandem repeat analysis and tested free of mycoplasma contamination by MycoAlert (Lonza, Cat #: LT07-218).” left out
Cells were seeded in black 96-well plates (2000 cells/well, 75 μL/well, ThermoFisher Scientific, Cat #: 137103) in complete medium. […] The viability of the cells was assessed by measuring fluorescence in a plate reader (ex/em: 552±10/598±10, Tecan Spark 10M). […]

Where [2] appears, read: Homo sapiens, hypoxic conditions, read-out: IC50 (μM) [1].
Setting [3] is: Homo sapiens, normoxic conditions, read-out: IC50 (μM) [2].
[4] abbreviates: hypoxic conditions, read-out: IC50 (μM) [1].
Where [5] appears, read: normoxic conditions, read-out: IC50 (μM) [2].
Where [6] appears, read: HCT116, hypoxic conditions, read-out: IC50 (μM) [1].
[7] abbreviates: HCT116, normoxic conditions, read-out: IC50 (μM) [2].
[8] abbreviates: PANC1, hypoxic conditions, read-out: IC50 (μM) [1].
The mark [9] stands for this setting: PANC1, normoxic conditions, read-out: IC50 (μM) [2].
The mark [10] stands for this setting: BxPC3, hypoxic conditions, read-out: IC50 (μM) [1].
Where [11] appears, read: BxPC3, normoxic conditions, read-out: IC50 (μM) [2].

Method for HaCat cells: (§3) Cells were seeded in black 96-well plates (2000 cells/well, 75 μL/well, ThermoFisher Scientific, Cat #: 137103) in complete medium. Subsequently, the cells were allowed to adhere to the substratum overnight. The next day, compounds were serially diluted in DMSO as 200× solutions. The 200× solutions of compounds were initially diluted in complete medium to 4× solutions containing 2% DMSO. Finally, the compounds were given to cells by the addition of 25 μL/well in triplicates resulting in 1× solutions of compounds in 100 μL/well. The cells were then incubated under either normoxia or hypoxia. 90 minutes before the end of the experiment, all cells were given CellTiter Blue (20 μL/well, Promega, Cat #: G8080) and reincubated under normoxia for the remaining time of the experiment. The viability of the cells was assessed by measuring fluorescence in a plate reader (ex/em: 552±10/598±10, Tecan Spark 10M). Data were normalized to the two lowest concentrations of compound and fitted to a 4-parameter nonlinear regression in Prism 7.04 for Windows, GraphPad Software, La Jolla Calif. […] IC50 values were extrapolated as the X value at Y=50%.
Method for U2OS cells: as §3

Take `C=C1/C=C/C(=O)N(C)CC(=O)N[C@@H]([C@H](O)C(N)=O)C(=O)OC([C@H](C)CCCCCC)[C@H](C)C(=O)N1` (some centres unmarked) [rakicidin D]: the “chemical stability at elevated pH” value in series [1] is “decreased stability”.
As for `Nc1n[n+]([O-])c2ccccc2[n+]1[O-]` [Tirapazamine, reference compound], the IC50 in the series on U2OS cells (setting [2]) was determined as 98 µM; in the series on U2OS cells (setting [3]), 18 µM; in the series on HaCat cells (setting [2]), 20 µM; with HaCat cells (setting [3]) it was 106 µM; with HCT116 cells (Homo sapiens, HCT-116, HCT116, hypoxic conditions, read-out: IC50 (μM) [1]) it was 14.4 µM; in the series on HCT116 cells (Homo sapiens, HCT-116, HCT116, normoxic conditions, read-out: IC50 (μM) [2]), 58 µM. The concentration for half-maximal inhibition (IC50) in the series on PANC-1 cells (Homo sapiens, PANC-1, PANC1, hypoxic conditions, read-out: IC50 (μM) [1]) was 11 µM; in the series on PANC-1 cells (Homo sapiens, PANC-1, PANC1, normoxic conditions, read-out: IC50 (μM) [2]), 76 µM; in the series on BxPC3 cells (Homo sapiens, BXPC-3, BxPC3, hypoxic conditions, read-out: IC50 (μM) [1]) it was 14 µM; in the series with BxPC3 cells (Homo sapiens, BXPC-3, BxPC3, normoxic conditions, read-out: IC50 (μM) [2]) it was 39 µM. The “Index [3] Selectivity index (IC50 [2]/IC50 [1])” value (“Index [3] Selectivity index” below) in the series with U2OS cells is 5.5; with HaCat cells, 5.2; with HCT116 cells it was 4.0; in the series on PANC-1 cells, 7.1; in the series on BxPC3 cells, 2.8.
Turning to `C=C1C=CC(=O)N(C)CC(=O)NCCOc2cc(CCCCCCCCCCCC)ccc2C(=O)N1` [PH466, (E)-16-dodecyl-7-methyl-11-methylene-3,4,6,7,11,12-hexahydro-benzo[n][1]oxa[4,7,12]triazacyclopentadecine-5,8,13(2H)-trione], the IC50 worked out at 2.1 µM with U2OS cells (setting [4]); 3.8 µM with U2OS cells (setting [5]); 3.9 µM in the series on HaCat cells (setting [4]); 4.9 µM with HaCat cells (setting [5]); 0.98 µM in the series with HCT116 cells (setting [6]); 4.2 µM with HCT116 cells (setting [7]). For the same molecule, the IC50 was determined as 1.8 µM in the series on PANC-1 cells (setting [8]), 4.1 µM in the series with PANC-1 cells (setting [9]), 3.4 µM in the series on BxPC3 cells (setting [10]) and 4.9 µM in the series with BxPC3 cells (setting [11]). Further, the “Index [3] Selectivity index” value was determined as 1.8 in the series with U2OS cells; 1.3 in the series with HaCat cells; 4.3 in the series on HCT116 cells; 2.3 in the series on PANC-1 cells; 1.4 with BxPC3 cells.
Take `C=C1/C=C/C(=O)N(C)CC(=O)N[C@@H](CCCCNC(=O)OC(C)(C)C)COc2cc(CCCCCCCCCCCC)ccc2C(=O)N1` [PH911, tert-butyl (S,E)-(4-(16-dodecyl-7-methyl-11-methylene-5,8,13-trioxo-2,3,4,5,6,7,8,11,12,13-decahydrobenzo[n][1]oxa[4,7,12]-triazacyclopentadecin-3-yl)butyl)carbamate]: the selectivity indices result in the series with tested cell lines is on record as “four to eight-fold”. Also, the IC50 in the series on HCT116 cells (setting [6]) was 0.73 µM; in the series on HCT116 cells (setting [7]) it was 3 µM; in the series with PANC-1 cells (setting [8]) it was 0.76 µM; in the series on PANC-1 cells (setting [9]), 6.2 µM; in the series on BxPC3 cells (setting [10]), 1.2 µM; with BxPC3 cells (setting [11]) it was 4.7 µM. In addition, the “Index [3] Selectivity index” value in the series with HCT116 cells is recorded as 4.2; in the series on PANC-1 cells, 8.1; in the series with BxPC3 cells, 3.9.
